Reference: the NIST ThermoML archive (doi:10.1021/acs.jced.5b00597)
“And” between values parts separate entries of the source, which are not always exact repeats. Equal entries are not always repeated.

Experiment: molar heat capacity at constant pressure
Conditions: Liquid, Flow calorimetry

FC(F)CC(F)(F)F [1,1,1,3,3-pentafluoropropane]
Conditions | molar heat capacity at constant pressure
277.89 K, 518.3 kPa | 170.11 J/K/mol
277.9 K, 519 kPa | 171.31 J/K/mol
282.87 K, 509.6 kPa | 171.72 J/K/mol
282.87 K, 511 kPa | 172.65 J/K/mol
287.9 K, 513.9 kPa | 173.46 J/K/mol
287.92 K, 512.5 kPa | 173.46 J/K/mol and 171.85 J/K/mol
292.91 K, 518.1 kPa | 179.09 J/K/mol
297.89 K, 514.6 kPa | 177.61 J/K/mol and 177.21 J/K/mol
302.89 K, 517.2 kPa | 178.42 J/K/mol
302.9 K, 518 kPa | 179.09 J/K/mol
307.87 K, 519.5 kPa | 181.23 J/K/mol
307.88 K, 504.1 kPa | 181.1 J/K/mol
307.88 K, 514.4 kPa | 182.17 J/K/mol [middle of 4 runs]
307.88 K, 808.1 kPa | 181.5 J/K/mol
307.89 K, 517.9 kPa | 182.71 J/K/mol
307.89 K, 518.2 kPa | 181.77 J/K/mol
307.89 K, 522.2 kPa | 181.63 J/K/mol
307.92 K, 415.8 kPa | 180.7 J/K/mol
307.93 K, 520.4 kPa | 182.71 J/K/mol
312.89 K, 514.5 kPa | 181.77 J/K/mol
313.89 K, 520.4 kPa | 180.96 J/K/mol
317.9 K, 522.2 kPa | 183.24 J/K/mol
317.9 K, 522.6 kPa | 181.9 J/K/mol
322.94 K, 518.4 kPa | 185.66 J/K/mol
322.95 K, 517.7 kPa | 184.85 J/K/mol and 184.58 J/K/mol
327.96 K, 806.4 kPa | 187.13 J/K/mol
327.97 K, 808.9 kPa | 185.92 J/K/mol
332.97 K, 815 kPa | 189.41 J/K/mol
332.97 K, 816.5 kPa | 187.8 J/K/mol
337.98 K, 810.3 kPa | 190.62 J/K/mol
342.96 K, 817.2 kPa | 192.22 J/K/mol
342.99 K, 813.6 kPa | 192.49 J/K/mol
